# Values quoted from earlier work in patent US20240139316A1, “USE OF OREGOVOMAB AND BEVACIZUMAB, PACLITAXEL, CARBOPLATIN FOR TREATMENT OF BRCA-WILD TYPE PLATINUM SENSITIVE RECURRENT” (CANARIABIO INC., priority 2021, published 2024).
# What was measured:
# [1] = stage III or IV ovarian cancer after initial surgical operation; bevacizumab added to carboplatin and paclitaxel, followed by single-agent bevacizumab
# [2] = four infusions of Oregovomab with standard six cycle carboplatin and paclitaxel, relative to carboplatin-paclitaxel alone
# [3] = oregovomab alone after the initial chemotherapy treatment, advanced ovarian cancer
Substance,Progression-free survival [1] [months],overall survival (OS) [2],progression free survival (PFS) [2],clinical outcome [3]
carboplatin and paclitaxel,13,,,
bevacizumab: recombinant humanized IgG1 monoclonal antibody that selectively binds human VEGF-A,18,,,
Oregovomab,,significant improvement,significant improvement,no improvements
